Laboratory results reported in ChEMBL document CHEMBL5244230, “Artemisinin-derived hybrids and their anticancer activity” (Eur J Med Chem, 2020).

Columns and labels:
Type in all cases: functional, cell-based
HT-29 = experiment: Antiproliferative activity against human HT-29 cells assessed as reduction in cell viability measured for 72 hrs by MTT assay; settings: HT-29, 72 h
A549 = experiment: Antiproliferative activity against human A549 cells assessed as reduction in cell viability measured for 72 hrs by MTT assay; settings: A549, 72 h
MDA-MB-231 = experiment: Antiproliferative activity against human MDA-MB-231 cells assessed as reduction in cell viability measured for 72 hrs by MTT assay; settings: MDA-MB-231, 72 h
HeLa = experiment: Antiproliferative activity against human HeLa cells assessed as reduction in cell viability measured for 72 hrs by MTT assay
NCI-H460 = experiment: Antiproliferative activity against human NCI-H460 cells assessed as reduction in cell viability measured for 72 hrs by MTT assay; settings: NCI-H460, 72 h

SMILES | IC50 (HT-29) [nM] | IC50 (A549) [nM] | IC50 (MDA-MB-231) [nM] | IC50 (HeLa) [nM] | IC50 (NCI-H460) [nM]
COc1ccc(/C=C/C(=O)c2ccc(COCC(=O)N[C@H]3O[C@@H]4O[C@@]5(C)CC[C@H]6[C@H](C)CC[C@@H]([C@H]3C)[C@@]46OO5)cc2)c(OC)c1OC | 90 | 90 | 90 | 90 | 90
COc1ccc(OC)c(/C=C/C(=O)c2ccc(COCC(=O)N[C@H]3O[C@@H]4O[C@@]5(C)CC[C@H]6[C@H](C)CC[C@@H]([C@H]3C)[C@@]46OO5)cc2)c1 | 90 | 90 | 90 | 90 | 90
C[C@H]1[C@H](NC(=O)COCc2ccc(C(=O)/C=C/c3ccc(Cl)cc3)cc2)O[C@@H]2O[C@@]3(C)CC[C@H]4[C@H](C)CC[C@@H]1[C@@]24OO3 | 100 | 100 | 100 | 100 | 100
COc1cccc(C(=O)/C=C/c2ccc(COCC(=O)N[C@H]3O[C@@H]4O[C@@]5(C)CC[C@H]6[C@H](C)CC[C@@H]([C@H]3C)[C@@]46OO5)cc2)c1 | 1700 | 1700 | 1700 | 1700 | 1700
C[C@H]1[C@@H](NC(=O)COCc2ccc(C(=O)/C=C/c3ccc(F)cc3F)cc2)O[C@@H]2O[C@@]3(C)CC[C@H]4[C@H](C)CC[C@@H]1[C@@]24OO3 | 90 | 90 | 90 | 90 | 90
C[C@H]1[C@H](NC(=O)COCc2ccc(C(=O)/C=C/c3ccc(Cl)cc3F)cc2)O[C@@H]2O[C@@]3(C)CC[C@H]4[C@H](C)CC[C@@H]1[C@@]24OO3 | 100 | 100 | 100 | 100 | 100
C[C@H]1[C@@H](NC(=O)COCc2ccc(C(=O)/C=C/c3ccccc3F)cc2)O[C@@H]2O[C@@]3(C)CC[C@H]4[C@H](C)CC[C@@H]1[C@@]24OO3 | 90 | 90 | 90 | 90 | 90
C[C@H]1[C@H](NC(=O)COCc2ccc(C(=O)/C=C/c3cccc(Cl)c3Cl)cc2)O[C@@H]2O[C@@]3(C)CC[C@H]4[C@H](C)CC[C@@H]1[C@@]24OO3 | 100 | 100 | 100 | 100 | 100
C[C@H]1[C@H](NC(=O)COCc2ccc(C(=O)/C=C/c3ccc(S(C)(=O)=O)cc3)cc2)O[C@@H]2O[C@@]3(C)CC[C@H]4[C@H](C)CC[C@@H]1[C@@]24OO3 | 100 | 100 | 100 | 100 | 100
C[C@H]1[C@H](NC(=O)COCc2ccc(C(=O)/C=C/c3ccc(F)cc3)cc2)O[C@@H]2O[C@@]3(C)CC[C@H]4[C@H](C)CC[C@@H]1[C@@]24OO3 | 100 | 100 | 100 | 100 | 100
C[C@H]1[C@H](NC(=O)COCc2ccc(C(=O)/C=C/c3c(Cl)cccc3Cl)cc2)O[C@@H]2O[C@@]3(C)CC[C@H]4[C@H](C)CC[C@@H]1[C@@]24OO3 | 100 | 100 | 100 | 100 | 100
C[C@H]1[C@@H](NC(=O)COCc2ccc(/C=C/C(=O)c3ccc(Cl)c(Cl)c3)cc2)O[C@@H]2O[C@@]3(C)CC[C@H]4[C@H](C)CC[C@@H]1[C@@]24OO3 | 1700 | 1700 | 1700 | 1700 | 1700
C[C@H]1[C@@H](NC(=O)COCc2ccc(C(=O)/C=C/c3ccc(Cl)cc3F)cc2)O[C@@H]2O[C@@]3(C)CC[C@H]4[C@H](C)CC[C@@H]1[C@@]24OO3 | 90 | 90 | 90 | 90 | 90
C[C@H]1[C@@H](NC(=O)COCc2ccc(C(=O)/C=C/c3c(Cl)cccc3Cl)cc2)O[C@@H]2O[C@@]3(C)CC[C@H]4[C@H](C)CC[C@@H]1[C@@]24OO3 | 90 | 90 | 90 | 90 | 90
C[C@H]1[C@@H](NC(=O)COCc2ccc(C(=O)/C=C/c3ccc(Cl)cc3)cc2)O[C@@H]2O[C@@]3(C)CC[C@H]4[C@H](C)CC[C@@H]1[C@@]24OO3 | 90 | 90 | 90 | 90 | 90
C[C@H]1[C@@H](NC(=O)COCc2ccc(/C=C/C(=O)c3ccc(F)cc3)cc2)O[C@@H]2O[C@@]3(C)CC[C@H]4[C@H](C)CC[C@@H]1[C@@]24OO3 | 1700 | 1700 | 1700 | 1700 | 1700
